For this test, the target named is T1, UCHL1 (Homo sapiens, UniProt P09936).
T1 construct: made in house; host or cells: HEK293T
T1 sequence (P09936 1-223): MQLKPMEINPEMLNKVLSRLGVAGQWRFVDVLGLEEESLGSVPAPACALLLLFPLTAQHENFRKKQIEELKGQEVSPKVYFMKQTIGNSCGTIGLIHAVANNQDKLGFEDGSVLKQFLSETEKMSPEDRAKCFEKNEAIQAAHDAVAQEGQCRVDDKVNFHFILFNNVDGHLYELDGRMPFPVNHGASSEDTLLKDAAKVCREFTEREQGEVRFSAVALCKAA
Nature of the test: UCHL1 biochemical IC50 assay (fluorescence polarisation). Particulars: 30 min enzyme/compound pre-incubation at room temp, read after 2 hr incubation, read-out: Activity range (UCHL1 biochemical IC50 assay). In a few lines: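 Fluorescence polarisation (ex 540/em 590 nm) of 50 nM TAMRA-labelled ubiquitin–peptide isopeptide substrate was read at time zero and after 2 h at room temperature. Compounds (100–0.03 μM final, in duplicate) were given 30 min preincubation with N-FLAG UCHL1 from HEK293T cells in pH 7.5 Tris buffer.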

Each structure is given as a SMILES string. Where only a bound is given, the exact number is not on record here.

With `C[C@H]1[C@@H](C(=O)Nc2ncc(-c3ccccc3Cl)s2)CCN1C#N` [Example 77, (2S,3S)—N-(5-(2-chlorophenyl)thiazol-2-yl)-1-cyano-2-methylpyrrolidine-3-carboxamide], the IC50 fell in the range of 1000 to 10000 nM.

With `CC1(C(=O)Nc2ncc(-c3ccccc3)s2)CCN(C#N)C1` (stereo not shown) [Example 78, 1-cyano-3-methyl-N-(5-phenylthiazol-2-yl)pyrrolidine-3-carboxamide], the IC50 fell in the range of 1000 to 10000 nM.

Consider `CC1(C(=O)Nc2cn(-c3ccccc3)cn2)CCN(C#N)C1` (stereo not shown) [Example 79, 1-cyano-3-methyl-N-(1-phenyl-1H-imidazol-4-yl)pyrrolidine-3-carboxamide], for which the IC50 lay within 10000 to 30000 nM.

For `COCC1(C(=O)Nc2ncc(-c3ccccc3)s2)CCN(C#N)C1` (stereo not shown) [Example 80, I-cyano-3-(methoxymethyl)-N-(5-phenylthiazol-2-yl)pyrrolidine-3-carboxamide], the IC50 was in the range of 10000 to 30000 nM.

As for `N#CN1CCC(C#N)(C(=O)Nc2ncc(-c3ccccc3)s2)C1` (stereo not shown) [Example 81, 1,3-dicyano-N-(5-phenylthiazol-2-yl)pyrrolidine-3-carboxamide], the IC50 lay within 1000 to 10000 nM.

Turning to `C[C@@H]1CN(C#N)C[C@H]1C(=O)Nc1ncc(-c2ccccc2)s1` [Example 82, (3S,4S)-1-cyano-4-methyl-N-(5-phenylthiazol-2-yl)pyrrolidine-3-carboxamide], the IC50 is < 1000 nM.

Regarding `Cc1cnc(NC(=O)[C@@H]2CN(C#N)C[C@H]2C)s1` [Example 83, (3S,4S)-1-cyano-4-methyl-N-(5-methylthiazol-2-yl)pyrrolidine-3-carboxamide], the IC50 was in the range of 1000 to 10000 nM.

Take `C[C@@H]1CN(C#N)C[C@H]1C(=O)Nc1cn(-c2ccccc2)cn1` [Example 85, (f)-1-cyano-4-methyl-N-(1-phenyl-1H-imidazol-4-yl)pyrrolidine-3-carboxamide]: the IC50 is 1000 to 10000 nM.

On to `CC[C@@H]1CN(C#N)C[C@H]1C(=O)Nc1cn(-c2ccccc2)cn1` [Example 87, (6)-1-cyano-4-ethyl-N-(1-phenyl-1H-imidazol-4-yl)pyrrolidine-3-carboxamide], for which the IC50 is 1000 to 10000 nM.

Take `N#CN1CC[C@H](C(=O)Nc2ncc(N3CCOCC3)s2)C1` [Example 91, (S)-1-cyano-N-(5-morpholinothiazol-2-yl)pyrrolidine-3-carboxamide]: the IC50 was < 1000 nM.

On to `CN1CCN(c2cnc(NC(=O)C3CCN(C#N)C3)s2)CC1` (stereo not shown) [Example 92, 1-cyano-N-(5-(4-methylpiperazin-1-yl)thiazol-2-yl)pyrrolidine-3-carboxamide], for which the IC50 was < 1000 nM.

As for `CC(=O)NCC1CCCCN1c1cnc(NC(=O)C2CCN(C#N)C2)s1` (stereo not shown) [Example 93, N-(5-(2-(acetamidomethyl)piperidin-1-yl)thiazol-2-yl)-1-cyanopyrrolidine-3-carboxamide], the IC50 was < 1000 nM.

For `CN(c1ccccc1)c1cnc(NC(=O)C2CCN(C#N)C2)s1` (stereo not shown) [Example 94, 1-cyano-N-(5-(methyl(phenyl)amino)thiazol-2-yl)pyrrolidine-3-carboxamide], the IC50 is < 1000 nM.

For the compound `N#CN1CCC(C(=O)Nc2ncc(N3CCc4ccccc43)s2)C1` (stereo not shown) [Example 95, 1-cyano-N-(5-(indolin-1-yl)thiazol-2-yl)pyrrolidine-3-carboxamide], the IC50 is < 1000 nM.

Consider `N#CN1CC[C@H](C(=O)Nc2ncc(N3CCCCC3)s2)C1` [Example 96, (S)-1-cyano-N-(5-(piperidin-1-yl)thiazol-2-yl)pyrrolidine-3-carboxamide], for which the IC50 is < 1000 nM.

Take `N#CN1CC[C@H](C(=O)Nc2ncc(N3Cc4ccccc4C3)s2)C1` [Example 97, (S)-1-cyano-N-(5-(isoindolin-2-yl)thiazol-2-yl)pyrrolidine-3-carboxamide]: the IC50 was < 1000 nM.

As to `N#CN1CC[C@H](C(=O)Nc2ncc(N3CCc4ccccc4C3)s2)C1` [Example 98, (S)-1-cyano-N-(5-(3,4-dihydroisoquinolin-2(1H)-yl)thiazol-2-yl)pyrrolidine-3-carboxamide], the IC50 lay in the range of 1000 to 10000 nM.

For `COC[C@H]1CCCN1c1cnc(NC(=O)[C@H]2CCN(C#N)C2)s1` [Example 99, (S)-1-cyano-N-(5-((R)-2-(methoxymethyl)pyrrolidin-1-yl)thiazol-2-yl)pyrrolidine-3-carboxamide], the IC50 was < 1000 nM.

Turning to `COC[C@@H]1CCCN1c1cnc(NC(=O)[C@H]2CCN(C#N)C2)s1` [Example 100, (S)-1-cyano-N-(5-((S)-2-(methoxymethyl)pyrrolidin-1-yl)thiazol-2-yl)pyrrolidine-3-carboxamide], the IC50 is < 1000 nM.

`N#CN1CC[C@H](C(=O)Nc2ncc(N3CCNC(=O)CC3)s2)C1` [Example 101, (S)-1-cyano-N-(5-(5-oxo-1,4-diazepan-1-yl)thiazol-2-yl)pyrrolidine-3-carboxamide]: the IC50 is < 1000 nM.

For `N#CN1CC[C@@H](C(=O)Nc2ncc(N3CCOCC3)s2)C1` [Example 102, (R)-1-cyano-N-(5-morpholinothiazol-2-yl)pyrrolidine-3-carboxamide], the IC50 was 1000 to 10000 nM.

As to `N#CN1CC[C@@H](C(=O)Nc2ncc(N3CCCCC3)s2)C1` [Example 103, (R)-1-cyano-N-(5-(piperidin-1-yl)thiazol-2-yl)pyrrolidine-3-carboxamide], the IC50 is 1000 to 10000 nM.

For `CC1CC(C(=O)Nc2ncc(N3CCCCC3)s2)CN1C#N` (stereo not shown) [Example 105, 1-cyano-5-methyl-N-(5-(piperidin-1-yl)thiazol-2-yl)pyrrolidine-3-carboxamide], the IC50 is 1000 to 10000 nM.

Take `N#CN1CC[C@H](C(=O)Nc2cccc(N3CCCC3)n2)C1` [Example 106, (S)-1-cyano-N-(6-(pyrrolidin-1-yl)pyridin-2-yl)pyrrolidine-3-carboxamide]: the IC50 lay in the range of 10000 to 30000 nM.

With `N#CN1CC[C@H](C(=O)Nc2cc(N3CCCC3)ccn2)C1` [Example 107, (S)-1-cyano-N-(4-(pyrrolidin-1-yl)pyridin-2-yl)pyrrolidine-3-carboxamide], the IC50 fell in the range of 1000 to 10000 nM.

Regarding `N#CN1CC[C@H](C(=O)Nc2cnc(N3CCCC3)cn2)C1` [Example 108, (S)-1-cyano-N-(5-(pyrrolidin-1-yl)pyrazin-2-yl)pyrrolidine-3-carboxamide], the IC50 was in the range of 1000 to 10000 nM.

For the compound `N#CN1CCC(C(=O)Nc2ncc(-c3ccccc3N)s2)C1` (stereo not shown) [Example 109, N-(5-(2-aminophenyl)thiazol-2-yl)-1-cyanopyrrolidine-3-carboxamide], the IC50 was 1000 to 10000 nM.

As for `N#CN1CCC(C(=O)Nc2ncc(-c3cccc(N)c3)s2)C1` (stereo not shown) [Example 110, N-(5-(3-aminophenyl)thiazol-2-yl)-1-cyanopyrrolidine-3-carboxamide], the IC50 is 1000 to 10000 nM.

On to `N#CN1CCC(C(=O)Nc2ncc(-c3ccc(N)cc3)s2)C1` (stereo not shown) [Example 111, N-(5-(4-aminophenyl)thiazol-2-yl)-1-cyanopyrrolidine-3-carboxamide], for which the IC50 was < 1000 nM.

On to `N#CN1CCC(C(=O)Nc2ncc(-c3cccnc3)s2)C1` (stereo not shown) [Example 112, 1-cyano-N-(5-(pyridin-3-yl)thiazol-2-yl)pyrrolidine-3-carboxamide], for which the IC50 was < 1000 nM.

As to `N#CN1CCC(C(=O)Nc2ncc(/C=C/C3CC3)s2)C1` (stereo not shown) [Example 113, (E)-1-cyano-N-(5-(2-cyclopropylvinyl)thiazol-2-yl)pyrrolidine-3-carboxamide], the IC50 is < 1000 nM.

On to `CC(=O)Nc1ccc(-c2cnc(NC(=O)C3CCN(C#N)C3)s2)cc1` (stereo not shown) [Example 114, N-(5-(4-acetamidophenyl)thiazol-2-yl)-1-cyanopyrrolidine-3-carboxamide], for which the IC50 is < 1000 nM.

For `CC(=O)Nc1ccccc1-c1cnc(NC(=O)C2CCN(C#N)C2)s1` (stereo not shown) [Example 115, N-(5-(2-acetamiclophenyl)thiazol-2-yl)-1-cyanopyrrolidine-3-carboxamide], the IC50 was in the range of 1000 to 10000 nM.

For the compound `CS(=O)(=O)Nc1cccc(-c2cnc(NC(=O)C3CCN(C#N)C3)s2)c1` (stereo not shown) [Example 116, 1-cyano-N-(5-(3-(methyl-sulfonamido)phenyl)thiazol-2-yl)pyrrolidine-3-carboxamide], the IC50 is < 1000 nM.

Consider `N#Cc1cccc(-c2cnc(NC(=O)[C@H]3CCN(C#N)C3)s2)c1` [Example 117, (S)-1-cyano-N-(5-(3-cyanophenyl)thiazol-2-yl)pyrrolidine-3-carboxamide], for which the IC50 is < 1000 nM.

For `N#Cc1ccc(-c2cnc(NC(=O)[C@H]3CCN(C#N)C3)s2)cc1` [Example 118, (S)-1-cyano-N-(5-(4-cyanophenyl)thiazol-2-yl)pyrrolidine-3-carboxamide], the IC50 is < 1000 nM.

`Cc1noc(C)c1-c1ccc2sc(NC(=O)C3CCN(C#N)C3)nc2c1` (stereo not shown) [Example 119, 1-cyano-N-(5-(3,5-dimethylisoxazol-4-yl)benzo[d]thiazol-2-yl)pyrrolidine-3-carboxamide]: the IC50 lay in the range of 1000 to 10000 nM.

For `Cc1noc(C)c1-c1ccc2nc(NC(=O)[C@H]3CCN(C#N)C3)sc2c1` [Example 120, (S)-1-cyano-N-(6-(3,5-dimethylisoxazol-4-yl)benzo[d]thiazol-2-yl)pyrrolidine-3-carboxamide], the IC50 was < 1000 nM.

For `COc1ccc(-c2ccc3nc(NC(=O)[C@H]4CCN(C#N)C4)sc3c2)cc1` [Example 121, (S)-1-cyano-N-(6-(4-methoxyphenyl)benzo[d]thiazol-2-yl)pyrrolidine-3-carboxamide], the IC50 fell in the range of 1000 to 10000 nM.

As for `N#CN1CC[C@H](C(=O)Nc2nc3ccc(-c4ccccc4)cc3s2)C1` [Example 122, (S)-1-cyano-N-(6-phenylbenzo[d]thiazol-2-yl)pyrrolidine-3-carboxamide], the 50% inhibitory concentration (IC50) is 1000 to 10000 nM.

For orientation: IC50 means the concentration that gives 50% inhibition.

For the origin of these results see patent US11472798B2 (Mission Therapeutics Limited, priority 2014, dated 2022).
